These results are taken from paper PMC8279492, “Quinolinonyl Non-Diketo Acid Derivatives as Inhibitors of HIV-1 Ribonuclease H and Polymerase Functions of Reverse Transcriptase” (Journal of Medicinal Chemistry, 2021).

Where two headings read alike, the source gives them in different places.

Data set [1] is described as follows: Compounds' toxicity, CellTiter 96 AQueous One Solution Cell Proliferation Assay. Conditions: human, HeLa-CD4-LTR-β-gal cells. The class given is cell-based. On the procedure: (§1) HIV-1 replication was monitored using HeLa-CD4-LTR-β-gal reporter cells as previously described.[69] Briefly, β-galactosidase activity was monitored 24 h post infection using a replication-competent HIV produced in-house (H9-laï coculture) and a serial dilution of molecules or an equivalent volume of DMSO. In parallel, compounds’ toxicity was determined at 24 h in the same cell line using CellTiter 96 AQueous One Solution Cell Proliferation Assay (Promega, France).

Data set [2] has as its target T1, HIV-1 RT-associated RNase H activity (Human immunodeficiency virus type 1 group M subtype B, UniProt P03366).
T1 construct: His-tagged p66/p51 HIV-1 RT group M subtype B; His; made in house; host or cells: Escherichia coli M15
The data set is described as follows: biochemical. The class given is biochemical. How it is done:
(11) and β-thujaplicinol (BTP) used as positive controls.
(§2) His-tagged p66/p51 HIV-1 RT group M subtype B coded in a p6HRT-prot plasmid was expressed in the Escherichia coli strain M15.[65] Heterodimeric RTs were expressed essentially and purified as described.[66]
The HIV-1 RT-associated RNase H activity was measured as described.[68] Briefly, the reaction was carried out in a black 96-well plate in a total volume of 100 μL. […] Experiments were performed in duplicate and replicated at least two times. Data were analyzed as described.[36]

The subject of another data set is HIV-1 replication. The data set is described as follows: HIV-1 replication in HeLa-CD4-LTR-β-gal reporter cells. As to conditions: for EC50: read-out: antiviral activity EC50. The class given is cell-based. How it is done: as §1
The target of a further data set is HIV-1 IN (Human immunodeficiency virus type 1 group M subtype B, UniProt P12497). The data set is described as follows: biochemical. How it is done: His-tagged NL4-3 IN was expressed from a pET15b plasmid in the E. coli BL21 pLys strain. Recombinant protein was purified as previously described[67] following a batch preparation on Ni-NTA beads (Qiagen, Paris, France).
Both oligonucleotides were purchased from Integrated DNA Technologies, Inc. (Coralville, IA), and the gel was purified in-house. ST reactions were performed by adding molecules or an equivalent volume of 100% dimethyl sulfoxide (DMSO, used as the drug solvent) to a mixture of 20 nM duplex DNA substrate and 400 nM IN in 50 mM MOPS pH 7.2, 7.5 mM MgCl2, and 14 mM 2-mercaptoethanol. Mixtures were incubated at 37 °C for 2 h, and the reaction was quenched by addition of an equal volume of loading buffer [formamide containing 1% sodium dodecyl sulfate (SDS), 0.25% bromophenol blue, and xylene cyanol]. […] Dried gels were visualized using a FLA5000 (Fuji Photo Film, Tokyo, Japan). Densitometric analyses were performed using ImageQuant 5.1 software from GE Healthcare.

A further data set deals with T2, HIV-1 RT-RDDP activity (Human immunodeficiency virus type 1 group M subtype B, UniProt P03366).
T2 construct: His-tagged p66/p51 HIV-1 RT group M subtype B; His; made in house; host or cells: Escherichia coli M15
The data set is described as follows: Polymerase assay (RNA-dependent DNA polymerase). The class given is biochemical. How it is done:
as §2
The HIV-1 RT-associated RNA-dependent DNA polymerase activity was measured as described.[65] Briefly, the reaction was carried out in a black 96-well plate in a total volume of 25 μL. Serial dilutions of compounds were added to the reaction mix containing 60 mM Tris HCl buffer pH 8.1, 8 mM MgCl2, 60 mM KCl, 13 mM DTT, 2.5 mM poly(A)-oligo(dT), and […].

Another data set deals with IN. As to conditions: supplement CSV, earlier compounds 1 and 2; ref 29−33; read-out: IN ST IC50; cited from earlier work.
Setting [3] is: CC50 (cytotoxic concentration 50%), 24 h.
The mark [4] stands for this setting: anti-RH activity (IC50 ± SD), HIV-1 RT-associated RNase H activity, dose-response curves, no preincubation.
Where [5] appears, read: Human immunodeficiency virus 1, HeLa-CD4-LTR-β-gal cells, 24 h post infection.

The term CC50 denotes the concentration giving 50% cytotoxicity. One may read the IC50 as the midpoint of a concentration-inhibition curve. The EC50 is the concentration giving half of the maximal effect. For `O=C(O)c1cn(Cc2ccc(F)cc2)c2ccc(OCc3ccc(-c4ccccc4)cc3)cc2c1=O` [4s, 6-([1,1′-Biphenyl]-4-ylmethoxy)-1-(4-fluorobenzyl)-4-oxo-1,4-dihydroquinoline-3-carboxylic Acid], the 50% cytotoxic concentration (CC50) at 24 h was greater than 100 µM in data set [1] (setting [3]) and greater than 16 µM in data set [1] (supplement CSV, read-out: CC50). Besides, the IC50 in data set [2] (setting [4]) was 7.47 ± 1.55 µM; at HIV-1 IN, greater than 250 µM; against HIV-1 RT-RDDP activity, 11.6 ± 5.5 µM. Besides, the “SI (selectivity index = CC50/EC50)” value with HIV-1 replication is listed as greater than 40. The concentration for a half-maximal effect (EC50) in the data set on HIV-1 replication (setting [5]) turned out to be 2.5 ± 1.03 µM.

In the case of `CCOC(=O)c1cn(Cc2ccc(F)cc2)c2ccc(C(C)=O)cc2c1=O` [5d, Ethyl 6-Acetyl-1-(4-fluorobenzyl)-4-oxo-1,4-dihydroquinoline-3-carboxylate], the CC50 at 24 h was greater than 200 µM in data set [1] (setting [3]) and greater than 50 µM in data set [1] (supplement CSV, read-out: CC50). For the same molecule, the IC50 was 11 ± 1 µM in data set [2] (setting [4]) and greater than 100 µM at HIV-1 IN. Moreover, the EC50 with HIV-1 replication (setting [5]) was greater than 50 µM.

For `CCOC(=O)c1cn(Cc2ccc(F)cc2)c2ccc(OCc3cccc(Cl)c3Cl)cc2c1=O` [5m, Ethyl 6-((2,3-Dichlorobenzyl)oxy)-1-(4-fluorobenzyl)-4-oxo-1,4-dihydroquinoline-3-carboxylate], the half-maximal cytotoxic concentration (CC50) at 24 h in data set [1] (setting [3]) came to 21.6 ± 2.8 µM; in data set [1] (supplement CSV, read-out: CC50), 23.9 ± 4.5 µM. The IC50 in data set [2] (setting [4]) stood at 24 µM; against HIV-1 IN, 0.05 ± 0.01 µM; against HIV-1 RT-RDDP activity, 1.88 ± 0.04 µM. Also, the “SI (selectivity index = CC50/EC50)” value with HIV-1 replication came out at 1.2. Further, the EC50 in the data set on HIV-1 replication (setting [5]) was found to be 17.8 ± 2.3 µM.

In turn, `CCOC(=O)c1cn(Cc2ccc(F)cc2)c2ccc(OCc3ccc(Cl)c(Cl)c3)cc2c1=O` [5n, Ethyl 6-((3,4-Dichlorobenzyl)oxy)-1-(4-fluorobenzyl)-4-oxo-1,4-dihydroquinoline-3-carboxylate] gave a half-maximal cytotoxic concentration (CC50) at 24 h in data set [1] (setting [3]) of 20.6 ± 4.4 µM. The concentration for half-maximal inhibition (IC50) is 37.2 ± 7.58 µM in data set [2] (RH IC50 (uM), supplement CSV); 37.2 ± 7.6 µM in data set [2] (setting [4]); 9.45 ± 0.55 µM against HIV-1 IN; 24.1 ± 8.6 µM against HIV-1 RT-RDDP activity. Besides, the “SI (selectivity index = CC50/EC50)” value in the data set with HIV-1 replication stood at 1.4. Further, the 50% effective concentration (EC50) in the data set on HIV-1 replication (setting [5]) came out at 14.6 ± 3.1 µM.

For the molecule `CCOC(=O)/C(O)=C/C(=O)/C=C/c1cccn1Cc1ccc(F)cc1` [compound 1], in the data set on IN, the IC50 is 90 µM.

Molecule `CCOC(=O)/C=C/C(=O)/C=C/c1cccn1Cc1ccccc1Cl` [compound 11, reference compound] yielded a CC50 at 24 h in data set [1] (setting [3]) of 68 ± 10 µM. The 50% inhibitory concentration (IC50) in data set [2] (setting [4]) was 7.5 ± 1.32 µM; against HIV-1 IN, greater than 100 µM. Besides, the EC50 in the data set on HIV-1 replication (Human immunodeficiency virus 1, 24 h) is 2.9 ± 0.5 µM.
